Results: US9018391B2, “Inhibitors of beta-secretase” (Boehringer Ingelheim International GmbH, priority 2012, dated 2015)

Legend:
[1] = system: Human Hepatocytes; assay: In Vitro Hepatocyte Stability Assay (Assay 4); assay type: in vitro ADME; details: predicted blood clearance as percent of hepatic blood flow
Procedure: In Vitro Hepatocyte Stability Assay (Assay 4)
The metabolic degradation of test compounds was assayed in a hepatocyte suspension. Cryopreserved hepatocytes were incubated in an appropriate buffer system (e.g., Dulbecco's modified eagle medium plus 3.5 μg glucagon/500 mL, 2.5 mg insulin/500 mL and 3.75 mg/500 mL hydrocortison) containing 5% species serum. Following a 30 min preincubation in an incubator (37° C., 10% CO2), 5 μl of test compound solution (80 μM; from 2 mM in DMSO stock solution diluted 1:25 with medium) were added into 395 μl hepatocyte suspension (cell density in the range 0.25−5×10^6 cells/mL, typically 1×10^6 cells/mL; final concentration of test compound final DMSO concentration […]).
The cells were incubated for six h (incubator, orbital shaker) and samples (25 μl) were taken at 0, 0.5, 1, 2, 4 and 6 h. Samples were transferred into acetonitrile and pelleted by centrifugation (5 min). The supernatant was transferred to a new 96 DeepWell™ plate, evaporated under nitrogen and resuspended. Decline of compound was analyzed by HPLC-MS/MS. CLint (in vitro hepatic intrinsic clearance) was calculated as follows: CLint=Dose/AUC=(C0/CD)/(AUD+Clast/k)×1000/60
C0: initial concentration in the incubation [μM];
CD: cell density of vital cells [cells/mL];
AUD: area under the data [μM×h];
Clast: concentration of last data point [μM];
k: slope of the regression line for compound decline [h^−1].
The calculated in vitro hepatic intrinsic clearance was scaled up to the intrinsic in vivo hepatic clearance (Clint in vivo) and used to predict hepatic in vivo blood clearance (CL) by the use of a liver model (well-stirred model), as follows: CLint,in vivo[mL/min/kg]=(CLint[μL/min/10^6 cells]×hepatocellularity[10^6 cells/g liver]×liver factor [g/kg body weight])/1000 CL[mL/min/kg]=CLint,to vivo×hepatic blood flow[ml/min/kg]/(CLint,in vivo[ml/min/kg]+hepatic blood flow[mL/min/kg])
The in vivo blood clearance was transformed into percent of the hepatic blood flow (% Qh): % Qh=CL[mL/min/kg]/hepatic blood flow[mL/min/kg])×100
Hepatocellularity, human: 1.2×10^7 cells/g liver;
Liver factor, human: 25.7 g/kg body weight;
Hepatic blood flow, human: 21 mL/(min×kg).

[2] = target: hERG channel (Homo sapiens (Human), UniProt Q12809); assay: hERG-Channel Assay (Assay 2), whole-cell patch clamp in HEK293 cells stably transfected with hERG cDNA; assay type: cell-based; details: for % Inhibition hERG @ 10 μM (assay 2): 35° C.; for inhibition at 10 µM: human, HEK293 cells stably transfected with hERG cDNA, pH 7.4, 35° C.
Sequence of hERG channel (Q12809 whole entry): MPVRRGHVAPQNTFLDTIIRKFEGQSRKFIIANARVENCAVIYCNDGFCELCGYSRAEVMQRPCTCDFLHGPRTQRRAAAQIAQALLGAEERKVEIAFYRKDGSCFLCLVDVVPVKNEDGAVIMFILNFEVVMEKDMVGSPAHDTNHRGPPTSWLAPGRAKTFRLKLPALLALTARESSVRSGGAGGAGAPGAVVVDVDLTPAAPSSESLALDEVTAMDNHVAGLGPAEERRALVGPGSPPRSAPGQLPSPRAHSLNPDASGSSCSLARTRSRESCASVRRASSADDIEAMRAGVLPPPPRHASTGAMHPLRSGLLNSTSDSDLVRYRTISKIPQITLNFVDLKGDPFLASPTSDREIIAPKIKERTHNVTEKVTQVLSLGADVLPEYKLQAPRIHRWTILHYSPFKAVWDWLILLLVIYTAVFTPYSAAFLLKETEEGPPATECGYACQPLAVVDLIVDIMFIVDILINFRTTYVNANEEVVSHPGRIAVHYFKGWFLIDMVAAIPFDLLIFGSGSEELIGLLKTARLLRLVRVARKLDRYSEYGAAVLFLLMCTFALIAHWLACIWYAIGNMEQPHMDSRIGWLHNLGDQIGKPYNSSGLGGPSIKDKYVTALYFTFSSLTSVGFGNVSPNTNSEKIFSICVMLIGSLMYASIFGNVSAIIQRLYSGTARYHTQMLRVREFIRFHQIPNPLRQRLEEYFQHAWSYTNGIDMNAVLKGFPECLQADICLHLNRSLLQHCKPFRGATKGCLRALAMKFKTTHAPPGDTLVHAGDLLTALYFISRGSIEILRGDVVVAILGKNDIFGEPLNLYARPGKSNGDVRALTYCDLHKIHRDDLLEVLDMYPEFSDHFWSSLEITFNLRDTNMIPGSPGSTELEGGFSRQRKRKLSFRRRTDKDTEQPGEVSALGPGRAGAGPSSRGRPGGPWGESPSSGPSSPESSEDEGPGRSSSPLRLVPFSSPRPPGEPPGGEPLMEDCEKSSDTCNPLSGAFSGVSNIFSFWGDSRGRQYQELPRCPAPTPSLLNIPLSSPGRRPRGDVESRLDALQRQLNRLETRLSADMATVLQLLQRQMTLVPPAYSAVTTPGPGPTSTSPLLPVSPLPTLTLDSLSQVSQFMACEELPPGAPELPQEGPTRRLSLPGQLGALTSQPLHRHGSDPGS
Source text: hERG-Channel Assay (Assay 2)
Cells: HEK (human embryonic kidney) 293 cells were stably transfected with hERG cDNA.
Cells were superfused with a bath solution containing (mM): NaCl (137), KCl (4.0), MgCl2 (1.0), CaCl2 (1.8), Glucose (10), HEPES (10), pH 7.4 with NaOH. Patch pipettes were made from borosilicate glass tubing using a horizontal puller and filled with pipette solution containing (mM): K-aspartate (130), MgCl2 (5.0), EGTA (5.0), K2ATP (4.0), HEPES (10.0), pH 7.2 with KOH. Resistance of the microelectrodes was in the range between 2 and 5 MΩ.
Stimulation and Recording:
Membrane currents were recorded using an EPC-10 patch clamp amplifier and PatchMaster software. hERG-mediated membrane currents were recorded at 35° C., using the whole-cell configuration of the patch-clamp technique. Transfected HEK293 cells were clamped at a holding potential of −60 mV and hERG-mediated inactivating tail currents were elicited using a pulse pattern with fixed amplitudes (activation/inactivation: 40 mV for 2000 ms; recovery: −120 mV for 2 ms; ramp to 40 mV in 2 ms; inactivating tail current: 40 mV for 50 ms) repeated at 15 s intervals. During each inter-pulse interval, 4 pulses scaled down by a factor of 0.2 were recorded for a P/n leak subtraction procedure. Rs compensation was employed up to a level that safely allowed recording devoid of ringing.
Compound Preparation and Application:
The different concentrations of the test compounds were applied sequentially on each of the different cells investigated. A steady state level of baseline current was measured for at least 6 sweeps prior to the application of the first test compound concentration.
The test compound was dissolved in DMSO to yield a master stock solution which was diluted further in DMSO to stock solutions needed for the lower concentrations. Final dilutions in extracellular buffer were prepared freshly from these stocks by a 1:1000 dilution step each before starting the experiments.
Peak current amplitudes were measured 3 ms after the ramp to +40 mV. For baseline and each concentration, the peak currents of the three last sweeps before application of the next concentration were averaged. Residual currents (I/I0) were calculated for each cell as the fraction of actual average peak current and average baseline peak current.

[3] = system: human hematopoetic U937 cell line; assay: In Vitro Phospholipidosis Assay (Assay 3), Nile red staining; assay type: cell-based; details: first effect concentration; U937 cells, 48 h; read-out: Phospholipidosis FEC IC50 μM (assay 3)
Procedure: (§1) In Vitro Phospholipidosis Assay (Assay 3)
(§2) The phospholipidogenic potential of test compounds was assayed using the human hematopoetic U937 cell line. The test principle was to analyze the phospholipid content by staining the cells with the fluorescent dye Nile red.
(§3) U937 cells were seeded into cell culture plates at 0.5×10^6 cells/mL in RPMI medium containing 10% FBS, 1% DMSO, and 0.005% gentamicin. The cells were cultivated with or without different concentrations of test compound for 48 h under standard culture conditions.
(§4) For harvesting, the cells were centrifuged at 130×g for 4 min and washed once with PBS. Then, 2×0.5 mL cell suspensions were prepared for non-fixed cell measurement (0.5 mL for propidium iodide (PI) viability measurement and 0.5 mL for Nile red measurement).
(§5) The remaining cells were fixed with 3.7% formaldehyde for 30 min. After a further centrifugation step, cells were resuspended with 1.3 mL Nile red working solution (1 μg/mL) and incubated for 5 min at rt. The cell suspension was washed twice with 3 mL PBS and centrifuged with 130×g for 4 min. The supernatant was discarded and the cells were resuspended with 0.5 mL PBS and kept for flow cytometry measurement.
(§6) For Nile red staining of the 0.5 mL non-fixed cell samples, 50 μL of a ready to use Nile red solution (10 μg/mL) were added per sample. Samples were kept on ice for 5 min. Thereafter, they were washed once with 4 mL PBS (4° C., 250×g for 8 min) and finally resuspended in 400 μL PBS and kept for flow cytometry measurement.
(§7) For the viability measurement, 12.5 μL of the ready to use PI solution (10 μg/mL) were added to the 0.5 mL non-fixed cell suspension. After 15 min of incubation on ice, the samples were measured by flow cytometry using a Coulter Epics XL/MCL flow cytometer.
(§8) The viability of the cells of each sample was determined by flow cytometry measurement of the PI content at channel 2 (568-590 nm). Cut-off gates for the fluorescence-dependent differentiation between live and dead cells were defined based on the analysis of cell culture medium control samples.
(§9) Only samples with a cell viability of >=90% relative to control samples were analyzed for phospholipidosis. Each Nile red sample (non-fixed and fixed samples) was measured by flow cytometry at channel 1 (504-541 nm) and channel 4 (660-680 nm).
(§10) For each channel, relative Nile red fluorescence intensity of a test sample was calculated compared to control samples and expressed as a percentage of control fluorescence intensity. The assessment of the phospholipidogenic potential and the first effective concentration (FEC) of a test compound was done manually based on the fluorescence intensities at both wavelengths for the fixed cells, as well as for the non-fixed cells.

[4] = target: truncated human beta-secretase, BACE1 (amino acids 1-454) (Homo sapiens (Human), UniProt P56817); assay: BACE1 Assay (Assay 1), fluorescence quench assay; assay type: biochemical; details: pH 4.4
Sequence of truncated human beta-secretase, BACE1 (amino acids 1-454) (P56817 22-454): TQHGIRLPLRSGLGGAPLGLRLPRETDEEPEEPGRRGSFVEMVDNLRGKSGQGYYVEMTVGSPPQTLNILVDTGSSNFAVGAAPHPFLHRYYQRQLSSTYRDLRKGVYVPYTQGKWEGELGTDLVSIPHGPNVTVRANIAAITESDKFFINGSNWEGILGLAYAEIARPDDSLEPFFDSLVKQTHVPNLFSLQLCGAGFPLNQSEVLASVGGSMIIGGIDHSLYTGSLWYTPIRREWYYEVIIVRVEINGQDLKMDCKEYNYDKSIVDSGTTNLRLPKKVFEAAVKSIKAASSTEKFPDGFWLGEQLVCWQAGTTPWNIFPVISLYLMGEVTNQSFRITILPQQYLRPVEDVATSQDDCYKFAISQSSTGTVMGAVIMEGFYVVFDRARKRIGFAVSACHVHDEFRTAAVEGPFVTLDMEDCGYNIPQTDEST
Procedure: The substrate was dissolved at 1 mg/ml in DMSO.
The assay was performed in the presence of OptiMEM™ (supernatant collected over 24 h and cleared from cellular debris by centrifugation) containing the ectodomain of BACE1, 25 μl water containing the desired 2-fold concentration of test compound and 2% DMSO, 1 μM substrate peptide, 20 mM NaOAc, pH 4.4, and 0.04% Triton-X100 in a total assay volume of 50 μl in a 384 well plate. In general, 25 μl of compound dilution were added to the plate followed by the addition of 10 μl of BACE1 containing OptiMEM™ diluted 1:10 in water with 0.2% Triton X-100. The reaction was started with the addition of 15 μl substrate in NaOAc buffer. The reaction was incubated at rt (dark) in an Envision® multilabel reader (Perkin Elmer) and the cleavage of the substrate was recorded as kinetic for […] at ex: 485 nm, em: 538 nm. Blank wells containing no enzyme were included on each plate.
The intensity of fluorescence was regressed against time in order to derive velocities of reaction in all 384 wells. These velocities were used for calculating percent control using an uninhibited control containing 1% DMSO as 100% and a blank control performed in the absence of enzyme as 0%. IC50 values were calculated by fitting percent control vs. test compound concentration using Assay Explorer®.

[5] = In Vitro Phospholipidosis Assay (Assay 3), Nile red staining; assay type: cell-based, human; details: human, first effect concentration, U937 cells, read-out: Phospholipidosis FEC IC50 μM (assay 3)
Procedure: as §1, §2, §3, §4, §5, §6, §7, §8, §9, §10

In vitro Human Hepatocytes % Qh @ 1 μM (assay 4) [1] [% Qh] | IC50 [4] [nM] | Structure (SMILES) | % Inhibition hERG @ 10 μM (assay 2) [2] [%] | IC50 [3] [µM] | inhibition at 10 µM [2] [%] | IC50 at 48 h [5] [µM]
14 |  | COC1CCC2(CC1)Cc1ccc(C#N)cc1[C@]21N=C(N)N(C)C1=O (stereo partly drawn) [drawing 18, reference compound] | 90 | 400 |  | 
36 | 1.1 | COC1CCC2(CC1)Cc1ccc(C#CC3CC3)cc1C21N=C(N)N(Cc2cncnc2)C1=O (stereo not drawn) [reference compound] |  |  | 60 | 25

The next lines start with the compound.

Structure (SMILES) | In vitro Human Hepatocytes % Qh @ 1 μM (assay 4) [1] [% Qh] | IC50 [4] [nM] | % Inhibition hERG @ 10 μM (assay 2) [2] [%] | IC50 [3] [µM] | inhibition at 10 µM [2] [%] | IC50 at 48 h [5] [µM]
COC1CCC2(CC1)Cc1ccc(C#N)cc1[C@]21N=C(N)N(C)C1=O (stereo partly drawn) [drawing 15, reference compound] | 14 |  | 90 | 400 |  | 
C[C@@H]1C[C@@]2(Cc3ccc(NC(=O)C(C)(C)F)cc3[C@]23N=C(N)N(CC(C)(C)F)C3=O)C[C@H](C)[C@H]1O [Example 6] | 11 | 6.3 |  |  | 1.8 | 400
CC[C@@H]1C[C@@]2(Cc3ccc(C#N)cc3[C@]23N=C(N)N(C[C@H]2COCCO2)C3=O)C[C@H](C)[C@H]1O [Example 8] | 19.1 | 1.9 |  |  | 6 | 800
